Bliss excess data for eight compounds are collected here from the supplement of paper PMC11061612.

Holding throughout (assay): Bliss excess, mean over the matrix (fraction); higher = more synergy
The test system of assay [1] is PFSK-1 (Other Solid Carcinomas). In short, it runs like this:
(§1)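 Bliss excess equals the observed combination effect minus the expected value EA + EB − EA·EB, where EA and EB are the effects of each agent alone. Combination Emax is the second-highest inhibition within the matrix. Inhibition was scaled from CellTiter-Glo 2.0 luminescence, with 0 set by vehicle wells and 1 by blank wells, after 72 hours of two-drug dosing of cells plated in 1536-well plates.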

For assay [2], the system named is KYSE-150 (Esophageal Squamous Cell Carcinoma). In short, it runs like this: as §1
Assay [3] deals with KINGS-1 (Low Grade Glioma). In short, it runs like this: as §1
Assay [4] deals with EBC-1 (Squamous Cell Lung Carcinoma). The essentials:
as §1

The next assay deals with A704 (Kidney Carcinoma). In short, it runs like this: as §1
In a further assay the test system is GI-1 (Glioblastoma). The essentials: as §1
The subject of assay [5] is NCI-H1573 (Lung Adenocarcinoma). The essentials: as §1
Assay [6] deals with ASH-3 (Thyroid Gland Carcinoma). The essentials:
as §1

For assay [7], the system named is VMRC-LCD (Lung Adenocarcinoma). In short, it runs like this: as §1
Assay [8] concerns BV-173 (Chronic Myelogenous Leukemia). In short, it runs like this: as §1
Assay [9] has as its system LC4-1 (B-Lymphoblastic Leukemia). In short, it runs like this:
as §1

A further assay deals with EW-13 (Ewing's Sarcoma). The essentials:
as §1

Assay [10] relates to KU-19-19 (Bladder Carcinoma). The essentials:
as §1

A further assay deals with IMR-5 (Neuroblastoma). The essentials:
as §1

For the compound `CC1(C)CCC(CN2CCN(c3ccc(C(=O)NS(=O)(=O)c4ccc(NCC5CCOCC5)c([N+](=O)[O-])c4)c(Oc4cnc5[nH]ccc5c4)c3)CC2)=C(c2ccc(Cl)cc2)C1` [Venetoclax] + Cn1cnc2c(F)c(Nc3ccc(Br)cc3Cl)c(C(=O)NOCCO)cc21 [Selumetinib] (first compound max 1 µM, 7x7, partner max 3 µM), the Bliss excess in [1] was -0.0092; in assay [2], -0.0102; in assay [3], -0.0469; in assay [4], -0.0542; with A704 (Kidney Carcinoma), -0.0299; with GI-1 (Glioblastoma), -0.0095. Besides, the Bliss excess is -0.0431 in assay [5]; -0.0074 in assay [6]; -0.0386 in [7]; -0.0183 in [8]; 0.0678 in assay [9]; -0.0378 in the assay on EW-13 (Ewing's Sarcoma). Also, the Bliss excess in [10] worked out at 0.0087; in the assay on IMR-5 (Neuroblastoma) it was 0.0009.

On to `NC1(C(=O)N[C@@H](CCO)c2ccc(Cl)cc2)CCN(c2ncnc3[nH]ccc23)CC1` [Capivasertib] + CC(=O)c1c(C)c2cnc(Nc3ccc(N4CCNCC4)cn3)nc2n(C2CCCC2)c1=O [Palbociclib] (first compound max 10 µM, 7x7, partner max 10 µM), for which the Bliss excess in assay [1] was 0.0014; in [2], 0.0446; in [3], 0.0102; in [4], 0.06; in the assay on A704 (Kidney Carcinoma), -0.0413; in the assay with GI-1 (Glioblastoma), 0.0117. In addition, the Bliss excess is -0.0204 in [5]; -0.0235 in assay [6]; -0.0153 in assay [7]; -0.0452 in [8]; 0.0772 in [9]; -0.0161 in the assay on EW-13 (Ewing's Sarcoma). Moreover, the Bliss excess is 0.0041 in [10] and 0.0514 in the assay with IMR-5 (Neuroblastoma).

Consider `C[C@@H](c1ccc2nccn2c1)n1nnc2ncc(-c3cnn(C)c3)nc21` [Savolitinib] + CC1(C)CCC(CN2CCN(c3ccc(C(=O)NS(=O)(=O)c4ccc(NCC5CCOCC5)c([N+](=O)[O-])c4)c(Oc4cnc5[nH]ccc5c4)c3)CC2)=C(c2ccc(Cl)cc2)C1 [Venetoclax] (first compound max 1 µM, 7x7, partner max 1 µM), for which the Bliss excess in assay [1] is -0.0025; in assay [2], -0.0686; in assay [3], -0.0566; in assay [4], -0.0642; in the assay with A704 (Kidney Carcinoma), -0.0516; in the assay on GI-1 (Glioblastoma), 0.0079. Besides, the Bliss excess was -0.0802 in assay [5]; -0.0329 in [6]; -0.0153 in assay [7]; 0.0064 in assay [8]; -0.0091 in assay [9]; -0.0796 with EW-13 (Ewing's Sarcoma). The Bliss excess was -0.0468 in [10] and -0.0158 in the assay with IMR-5 (Neuroblastoma).

Turning to `Cn1cnc2c(F)c(Nc3ccc(Br)cc3Cl)c(C(=O)NOCCO)cc21` [Selumetinib] + CCN(CCO)CCCOc1ccc2c(Nc3cc(CC(=O)Nc4cccc(F)c4)[nH]n3)ncnc2c1 [AZD2811] (first compound max 10 µM, 7x7, partner max 1 µM), the Bliss excess is -0.0438 in [1]; 0.0295 in [2]; -0.0447 in [3]; -0.003 in assay [4]; -0.058 in the assay on A704 (Kidney Carcinoma); -0.104 in the assay with GI-1 (Glioblastoma). Moreover, the Bliss excess in assay [5] is -0.0318; in assay [6] it was 0.0505; in assay [7], -0.0162; in assay [8], -0.0225; in [9], -0.0505; with EW-13 (Ewing's Sarcoma), -0.0108. The Bliss excess in assay [10] is 0.0258; in the assay on IMR-5 (Neuroblastoma), -0.0062.

In the case of `CN(CCO)CC[C@H](CSc1ccccc1)Nc1ccc(S(=O)(=O)NC(=O)c2ccc(N3CCC([C@@H](O)c4ccccc4-c4ccc(Cl)cc4)CC3)cc2)cc1S(=O)(=O)C(F)(F)F` [AZD4320] + CN(C)CCCOc1ccc(-c2ccc3ncc4c(c3c2)n(C2CCOCC2)c(=O)n4C)cn1 [AZD0156] (first compound max 1 µM, 7x7, partner max 1 µM), the Bliss excess in assay [1] was 0.0427; in assay [2] it was -0.0392; in assay [3] it was 0.007; in assay [4], -0.0075; with A704 (Kidney Carcinoma) it was -0.0411; in the assay on GI-1 (Glioblastoma), 0.0066. Moreover, the Bliss excess in assay [5] is -0.0255; in [6], 0.0341; in assay [7], -0.0542; in assay [8] it was -0.0681; in [9], 0.0937; in the assay on EW-13 (Ewing's Sarcoma), -0.0303. Further, the Bliss excess in assay [10] was -0.0364; with IMR-5 (Neuroblastoma), 0.0284.

On to `CS(=O)(=O)CCNCc1ccc(-c2ccc3ncnc(Nc4ccc(OCc5cccc(F)c5)c(Cl)c4)c3c2)o1` [Lapatinib] + C[C@@H](Oc1cc(-c2cnn(C3CCNCC3)c2)cnc1N)c1c(Cl)ccc(F)c1Cl [Crizotinib] (first compound max 10 µM, 7x7, partner max 10 µM), for which the Bliss excess in assay [1] was -0.0546; in assay [2], -0.0355; in [3], 0.0032; in [4], 0.0978; with A704 (Kidney Carcinoma), -0.122; with GI-1 (Glioblastoma) it was -0.0444. The Bliss excess in [5] is 0.121; in assay [6], -0.0207; in assay [7] it was -0.0246; in [8] it was -0.037; in assay [9] it was -0.0501; in the assay on EW-13 (Ewing's Sarcoma), 0.0066. Besides, the Bliss excess in assay [10] is -0.034; in the assay on IMR-5 (Neuroblastoma), -0.0113.

As to `Cc1c2c(nn1C)CSCc1cc(n(C)n1)CSc1cc(c3ccccc3c1)OCCCc1c(C(=O)O)n(C)c3c-2c(Cl)ccc13` [AZD5991] + C[C@@H](Nc1cc(F)cc(F)c1)c1cc(C(=O)N(C)C)cc2c(=O)cc(N3CCOCC3)oc12 [AZD8186] (first compound max 1 µM, 7x7, partner max 3 µM), the Bliss excess in assay [1] is 0.0429; in assay [2] it was -0.0127; in assay [3], -0.0111; in assay [4], 0.0298; in the assay with A704 (Kidney Carcinoma) it was -0.0291; in the assay on GI-1 (Glioblastoma), 0.0556. For the same compound, the Bliss excess is -0.0303 in assay [5]; 0.0027 in assay [6]; -0.024 in assay [7]; -0.0917 in [8]; -0.057 in assay [9]; -0.0535 in the assay with EW-13 (Ewing's Sarcoma). Further, the Bliss excess in assay [10] is 0.0033; with IMR-5 (Neuroblastoma), -0.0006.

Consider `Cc1c2c(nn1C)CSCc1cc(n(C)n1)CSc1cc(c3ccccc3c1)OCCCc1c(C(=O)O)n(C)c3c-2c(Cl)ccc13` [AZD5991] + CC1(C)CCC(CN2CCN(c3ccc(C(=O)NS(=O)(=O)c4ccc(NCC5CCOCC5)c([N+](=O)[O-])c4)c(Oc4cnc5[nH]ccc5c4)c3)CC2)=C(c2ccc(Cl)cc2)C1 [Venetoclax] (first compound max 1 µM, 7x7, partner max 1 µM), for which the Bliss excess in assay [1] was 0.0721; in assay [2] it was -0.0324; in assay [3] it was -0.0771; in assay [4], -0.0333; in the assay with A704 (Kidney Carcinoma), -0.0306; in the assay on GI-1 (Glioblastoma) it was 0.0476. Also, the Bliss excess is -0.036 in assay [5]; -0.038 in assay [6]; -0.0217 in assay [7]; 0.0178 in assay [8]; 0.0705 in assay [9]; 0.0893 with EW-13 (Ewing's Sarcoma). In addition, the values for the Bliss excess (in [10]; in the assay with IMR-5 (Neuroblastoma)) were 0.0578 and 0.0656, respectively.
